Experimental data taken from patent US6734180B1, “NF-κB inhibitor comprising an indan derivative as an active ingredient” (Daiichi Suntory Pharma Co., Ltd., priority 1998, dated 2004).
Like-named read-outs stand apart in the source and are kept apart here.

Legend:
TNF-α production = TNF-α production of LPS-stimulated RAW264.7 cells (ELISA); format: cell-based, mouse; details: RAW264.7 cells stimulated with LPS for 4 hours
Source text: (§1) Experiment 3. Effect of lipopolysaccharide (LPS) stimulation on NO and TNF-α production
(§2) When various cells are stimulated with LPS, NV-κB is activated which results in the expression and induction of proteins represented by NOS, TNF-α, and thereby the cells start to produce NO and/or TNF-α.
(§3) The inhibitory effect of these compounds was expressed as IC50 value in Table 3.

[1] = system: human inducible NO synthase (hiNOS) gene; test: Expression of the human inducible NO synthase (hiNOS) gene, firefly luciferase reporter in A5 cells; format: cell-based; details: IL-1β (1 ng/ml)+TNF-α (500 ng/ml), firefly luciferase activity 24 hours later, read-out: IL-1β + TNF-α stimulation IC50 (inhibitory effect on the expression of the hiNOS gene)
Description: Experiment 1. Effect of compounds on the expression of the human inducible NO synthase (hiNOS) gene
The experiment was carried out using A5 cells (human lung carcinoma cell line A549 cells (ATCC, CCL185) stably transfected with NOS53+F) previously reported by the inventors (Nunokawa, Y. et al., (1997) Biochem. Biophys. Res. Commun. 233, 523-526).
Compounds described in Examples were added to A5 cells simultaneously with IL-1β (1 ng/ml)+TNF-α (500 ng/ml) to investigate the inhibitory effect on the firefly luciferase activity 24 hours later.
The activity of firefly luciferase was measured based on the protocol by the Luciferase Assay System (Promega, U.S.A.).
The inhibitory effect of the compounds claimed in the present invention on the expression of the hiNOS gene was expressed as IC50 value in Table 1.

NO production = NO production of LPS-stimulated RAW264.7 cells (Griess' method); format: cell-based, mouse; details: LPS (10 μg/ml), 24 hours after the stimulation
Source text: as §1, §2
To determine the production of NO indirectly, the Griess' method utilizing a diazo reaction is useful (Green, L. C. et al., (1982) Anal. Biochem, 126, 131-138). In the Griess' method, the Griess' reagent prepared by mixing naphthylethylenediamine and sulfanilic acid is reacted with NO2^− ion in the culture medium, and the color development thereof is measured by an absorbance at 540 nm.
as §3

[2] = system: sea pansy luciferase gene (pRL-SV40) under the control of SV40 promoter; test: Sea pansy luciferase under SV40 promoter (NF-κB independent) in A5 cells; format: cell-based, human; details: no stimulation, compound at 1 μg/ml for 4 hours
Description: The activity of sea pansy luciferase was measured based on the protocol by the Dual Luciferase Reporter Assay System (Promega, U.S.A.).

[3] = system: rat models of carageenin foot pad edema; test: Carrageenin foot pad edema in rats; format: in vivo; details: male Wistar rats, 1 mg/kg intraperitoneally 15 minutes before carrageenin
Description: FIG. 1 is a graph showing the result of Experiment 4 in which the compounds of Example 32 were studied using rat models of carageenin foot pad edema. Each point represents the mean±SE (n=5). Dunnett's test was carried out and the results are shown by * p<0.05 and ** p<0.01.
An aqueous solution of 1% λ-carrageenin (Wako Pure Chemical Industries) in physiological saline (0.1 ml) was intradermally administered to the pad of the left paw of 6-week old male Wistar rats weighing 149 g to 171 g, and changes in the volume of the paw were measured for indicated period. The test compound (0.3, 1 mg/kg) described in Example 32 was suspended in a solution of 0.5% hydroxypropyl cellulose in physiological saline (EPC, Nippon Soda Co., Ltd.) and was intraperitoneally given 15 minutes before the administration of carrageenin. For the control group, a solution of 0.5% HPC in physiological saline was used.

NF-κB = test: NF-κB-controlled firefly luciferase in A549/NF-κBLuc cells; format: cell-based, human
Description: Experiment 2. Effect of compounds on A549 cells (A549/NF-κBLuc) stably transfected with luciferase plasmid (pNFκB-Luc) having the NF-κB regulatory sequence
Using lipofectamine (Lifetech oriental K.K., Tokyo), pNFκB-Luc (Stratagene, U.S.A.) were cotransfected with pSV2neo (Clontech, U.S.A.) into A549 cells according to the conventional method, and A549/NF-κBLuc stably transfected with pNFκB-Luc were selected by adding G418 sulfate ((1 mg/ml) Lifetech Oriental K.K.) to the culture medium.
NF-κB inhibiting activity was expressed as IC50 values in Table 2.

| IC50 (TNF-α production; Mus musculus) | IC50 ([1]; Homo sapiens) | IC50 (NO production; Mus musculus) | Compound | further results |
| --- | --- | --- | --- | --- |
| 1100 nM | 280 nM | 710 nM | Cc1csc2ncnc(NC3Cc4ccccc4C3)c12 [Example 1, 4-(2-indanylamino)-5-methylthieno[2,3-d]pyrimidine] |  |
| 160 nM | 64 nM | 64 nM | CC(C)c1csc2ncnc(NC3Cc4ccccc4C3)c12 [Example 22, 4-(2-indanylamino)-5-isopropylthieno[2,3-d]pyrimidine] |  |

Continued, compound first:

| Compound | IC50 (TNF-α production; Mus musculus) | IC50 ([1]; Homo sapiens) | IC50 (NO production; Mus musculus) | further results |
| --- | --- | --- | --- | --- |
| c1ccc2c(c1)CC(Nc1ncnc3occc13)C2 [Example 6, 4-(2-indanylamino)furo[2,3-d]pyrimidine] |  | 800 nM |  |  |
| Cc1noc2ncnc(NC3Cc4ccccc4C3)c12 [Example 10, 3-methyl-4-(2-indanylamino)isoxazolo[5,4-d]pyrimidine] |  |  |  | melting point: 208 °C |
| Cc1csc2ncnc(NC3Cc4ccc(Oc5ccccc5)cc4C3)c12 (stereo not shown) [Example 25, 4-(5-phenoxyindan-2-yl)amino-5-methylthieno[2,3-d]pyrimidine] |  | 150 nM |  |  |
| Cc1csc2ncnc(NC3Cc4ccc(C(=O)NCc5ccccc5)cc4C3)c12 (stereo not shown) [Example 31, N-benzyl-2-(5-methylthieno[2,3-d]pyrimidine-4-yl)amino-5-indan carboxamide] | 48 nM | 2.4 nM | 24 nM | influence on the activity of sea pansy luciferase [2]: had no influence |
| Cc1csc2ncnc(NC3Cc4ccc(C(=O)N5CCOCC5)cc4C3)c12 (stereo not shown) [Example 32, 2-[5-methylthieno[2,3-d]pyrimidine-4-yl]aminoindan-5-carboxylic acid morpholinamide] |  |  |  | edema formation at 2 hours ([3]; 2 hours): significantly suppressed edema formation; edema suppression at 3 hours and after ([3]; 3 hours and after): high rate of edema suppression; IC50 (TNF-α production): 51 nM; IC50 [1]: 51 nM; IC50 (NF-κB; IL-1β (1 ng/ml) for 4 hours, read-out: IL-1β stimulation IC50 (NF-κB inhibiting activity)): 51 nM; IC50 (NF-κB; TNF-α (500 ng/ml) for 4 hours, read-out: TNF-α stimulation IC50 (NF-κB inhibiting activity)): 89 nM; influence on the activity of sea pansy luciferase [2]: had no influence; IC50 (NO production): 25 nM |
| c1ccc2c(c1)CC(Nc1ncnc3nc[nH]c13)C2 [Example 37, 6-(2-indanylamino)purine] |  |  |  | melting point: ≥ 300 °C |
